Measurements: patent US5002942A, “1,5-benzothiazepine derivatives, their preparation and their use in the treatment of cardiovascular disorders” (Sankyo Company, Limited, priority 1988, dated 1991)

What was measured:
[1] = molecular target: T1, calcium channel (Cavia porcellus, UniProt O35505); test: Calcium channel blocking action (calcium-induced contraction of excised taenia coli); conditions: 0.5 h, test compound 10^-8 g/ml, 30 minutes incubation, guinea pig taenia coli, hydrochlorides (Example 34: fumarate)
T1 construct: The taenia coli excised from a male guinea pig; from tissue; host or cells: guinea pig taenia coli (excised smooth muscle strip)
T1 sequence (O35505 whole entry): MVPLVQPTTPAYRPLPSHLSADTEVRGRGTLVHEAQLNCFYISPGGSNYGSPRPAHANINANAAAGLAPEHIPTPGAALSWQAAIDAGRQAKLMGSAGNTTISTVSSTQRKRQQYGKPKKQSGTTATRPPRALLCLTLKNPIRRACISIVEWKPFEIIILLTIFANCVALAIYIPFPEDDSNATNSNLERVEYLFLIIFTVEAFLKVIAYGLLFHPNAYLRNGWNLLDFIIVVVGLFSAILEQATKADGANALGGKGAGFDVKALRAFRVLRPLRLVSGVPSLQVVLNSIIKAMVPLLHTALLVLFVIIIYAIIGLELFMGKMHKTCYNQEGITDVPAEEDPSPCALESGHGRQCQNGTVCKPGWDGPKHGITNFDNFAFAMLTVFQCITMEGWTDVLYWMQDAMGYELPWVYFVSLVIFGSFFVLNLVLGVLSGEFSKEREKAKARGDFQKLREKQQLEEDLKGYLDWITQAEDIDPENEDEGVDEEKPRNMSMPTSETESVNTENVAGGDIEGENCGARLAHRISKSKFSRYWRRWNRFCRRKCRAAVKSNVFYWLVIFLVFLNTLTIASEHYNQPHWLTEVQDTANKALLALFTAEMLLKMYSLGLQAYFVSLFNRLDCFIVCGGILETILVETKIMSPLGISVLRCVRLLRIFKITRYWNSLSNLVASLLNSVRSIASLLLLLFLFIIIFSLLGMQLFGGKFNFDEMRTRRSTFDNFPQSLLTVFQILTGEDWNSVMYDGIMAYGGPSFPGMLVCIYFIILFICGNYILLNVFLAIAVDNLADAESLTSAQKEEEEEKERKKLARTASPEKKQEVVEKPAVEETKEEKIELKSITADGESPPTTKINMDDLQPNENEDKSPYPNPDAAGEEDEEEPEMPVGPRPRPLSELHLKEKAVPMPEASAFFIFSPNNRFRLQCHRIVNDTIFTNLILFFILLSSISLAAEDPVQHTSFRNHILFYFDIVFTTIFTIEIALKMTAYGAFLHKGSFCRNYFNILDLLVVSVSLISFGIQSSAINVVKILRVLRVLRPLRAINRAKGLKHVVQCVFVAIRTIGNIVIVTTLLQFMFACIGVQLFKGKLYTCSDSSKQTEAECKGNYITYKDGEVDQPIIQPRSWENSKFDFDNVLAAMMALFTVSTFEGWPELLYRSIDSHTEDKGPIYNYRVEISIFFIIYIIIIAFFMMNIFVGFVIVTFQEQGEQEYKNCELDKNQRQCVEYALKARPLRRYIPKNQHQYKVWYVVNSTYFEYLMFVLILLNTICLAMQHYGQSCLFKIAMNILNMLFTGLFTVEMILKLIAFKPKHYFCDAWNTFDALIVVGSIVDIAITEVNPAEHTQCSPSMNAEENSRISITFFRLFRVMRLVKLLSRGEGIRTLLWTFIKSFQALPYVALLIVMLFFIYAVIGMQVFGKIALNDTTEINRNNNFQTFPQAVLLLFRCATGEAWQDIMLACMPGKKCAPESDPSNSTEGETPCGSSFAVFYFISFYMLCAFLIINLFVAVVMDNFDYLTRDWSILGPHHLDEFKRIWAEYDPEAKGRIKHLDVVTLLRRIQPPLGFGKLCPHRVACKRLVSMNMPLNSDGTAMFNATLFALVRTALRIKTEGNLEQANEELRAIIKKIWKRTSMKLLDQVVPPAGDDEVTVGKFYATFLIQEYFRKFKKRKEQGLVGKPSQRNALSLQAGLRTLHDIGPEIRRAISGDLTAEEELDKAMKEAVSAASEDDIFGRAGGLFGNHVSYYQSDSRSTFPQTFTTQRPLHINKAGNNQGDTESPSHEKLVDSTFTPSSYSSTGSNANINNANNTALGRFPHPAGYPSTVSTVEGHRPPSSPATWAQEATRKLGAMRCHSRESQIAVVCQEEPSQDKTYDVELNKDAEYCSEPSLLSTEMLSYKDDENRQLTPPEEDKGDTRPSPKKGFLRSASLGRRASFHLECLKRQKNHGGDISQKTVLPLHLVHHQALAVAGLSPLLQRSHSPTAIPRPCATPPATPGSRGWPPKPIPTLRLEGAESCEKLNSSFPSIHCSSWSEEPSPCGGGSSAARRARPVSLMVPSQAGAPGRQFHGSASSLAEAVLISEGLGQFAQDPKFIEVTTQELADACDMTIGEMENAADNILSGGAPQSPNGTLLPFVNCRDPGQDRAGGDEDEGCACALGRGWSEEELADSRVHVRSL
Description: The taenia coli excised from a male guinea pig weighing from 250 to 300 g was cut into a length of 6 to 7 mm and suspended in an organ bath filled with Tylord's solution (sodium chloride 97 mM, potassium chloride 40 mM, sodium hydrogen carbonate 11.9 mM, disodium hydrogen phosphate 0.4 mM, glucose 5.5 mM; pH 7.1). The bath solution contained no calcium ions and was aerated with a mixture of 95% oxygen and 5% carbon dioxide by volume. To this solution were added 10 and 30 mM solutions of calcium chloride at 30 minute intervals to obtain a final concentration of 0.4 mM. The tension which developed 1n the taenia coli was measured by an isometric transducer. The organ bath was then washed twice or more with Tylord's solution containing no calcium ions after which it was allowed to equilibrate for 30 minutes. After the muscle had stabilised, test compound dissolved in physiological saline was added to the bath to a final concentration of 10^-8 g/ml, and the bath was incubated for 30 minutes. 30 and 100 mM solutions of calcium chloride were again added to the bath, and the developed tension was measured. From the magnitude of the calcium-induced contraction before and after the test drug had been added the inhibitory rate was calculated using the following formula: [formula] where: Co=contraction induced by calcium ion before a test drug was added: and
Ct=contraction induced by calcium ion after the test drug had been added.
In addition to the compounds of the invention, we also carried out the same test with the following compounds of the prior art: (±)-diltiazem, […], (±)-8-chlorodiltiazem (8-Cl-diltiazem). (±)-8-methoxydiltiazem (8-MeO-diltiazem) and (±)-8-benzyloxydiltiazem (8-BzO-diltiazem).
In the Table, the compounds of the invention are identified by the number of the one of the foregoing Examples in which the compound was prepared. The prior art compounds are identified by the abbreviated generic names shown above in parentheses.
All of the compounds except for that of Example 34 were employed as the hydrochlorides; that of Example 34 was employed as the fumarate.

[2] = tested on: SHR (spontaneously hypertensive rats); test: Antihypertensive action in SHR; assay type: in vivo; conditions: conscious male SHR, hydrochlorides, 24 hours
Description: Male SHR (spontaneously hypertensive rats), 23 to 30 weeks old, were anesthesized with sodium pentobarbital 50 mg/kg intraperitoneal administration), and a polyethylene cannula was inserted through the left femoral artery into the abdominal aorta. The other end of the cannula was led out of the body and fixed at the back of the neck. One week after the operation, when the animal had recovered from the stress of the surgery, the other end of the cannula was connected to a blood pressure measuring device, which was constructed according to the directions of Laffan et al. [Laffan, P.J., Peterson A., Hitch S,W. and Jeunelot C., Cardiovascular Res. 6. 319-324 (1972)], but with slight modifications. The blood pressure and heart rate of the conscious and […] SHR were measured. After the blood pressure and the heart rate had stabilised for more than one hour, the test drug was administered by […]. After administration of the test sample, the blood pressure and the heart rate were measured every 15 minutes over a period of 24 hours. The maximum decrease in blood pressure and the half-time of the blood pressure lowering activity thus determined are shown in Table 6.
All of the test compounds were employed as the hydrochlorides.

SMILES	inhibition at 0.01 µg/mL [1]	Half-time of hypotension action ([2]; Dose 10 mg/kg)	change in vivo at 10 mg/kg ([2]; Rattus norvegicus, po, Dose 10 mg/kg, read-out: Maximum hypotension (%))	Half-time of hypotension action ([2]; Dose 30 mg/kg)	change in vivo at 30 mg/kg ([2]; Rattus norvegicus, po, Dose 30 mg/kg, read-out: Maximum hypotension (%))
COc1ccc([C@@H]2Sc3ccccc3N(CCN(C)C)C(=O)[C@@H]2OC(C)=O)cc1 [(+)-diltiazem, (2, 3S)-cis-3-acetoxy-2,3-dihydro-5-(2-dimethylaminoethyl)-2-(4-methoxyphenyl)-1,5-benzothiazepin-4(5H)-one, reference compound]	20%	3.3 h	-15%		
COc1ccc([C@@H]2Sc3cc(Oc4ccccc4)ccc3N(CCN(C)C)C(=O)[C@@H]2OC(C)=O)cc1 (racemic) [Example 2, (±)-Cis-3-acetoxy-5-(2-dimethylaminoethyl)-2,3-dihydro-2-(4-methoxyphenyl)-8-phenoxy-1,5-benzothiazepin-4(5H)-one]	58%			13.9 h	-34%
